Reference: the NIST ThermoML archive (doi:10.1016/j.fluid.2014.01.033)
Numbers after ± are expanded uncertainties.

Columns and labels:
[1] = 298.15 K; 101.33 kPa; Liquid; Vibrating tube method
[2] = refractive index (Na D-line) (dimensionless); settings: 298.15 K; 101.33 kPa; Liquid; Standard Abbe refractometry

| SMILES | mass density [1] | refractive index [2] |
| --- | --- | --- |
| CC#N [acetonitrile] | 776.55 ± 0.19 kg/m3 | 1.3413 ± 0.0007 |
| c1ccccc1 [benzene] | 873.79 ± 0.17 kg/m3 | 1.4978 ± 0.0007 |
| CCCCCC [hexane] | 655.12 ± 0.21 kg/m3 | 1.3725 ± 0.0007 |
